In PubChem BioAssay AID651988 (The Scripps Research Institute Molecular Screening Center, 2013):
Active and inactive are the calls of the source.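 How the source made its calls: active means inhibition of 50% or more at 300 nM in exactly one of the two enzyme panels, LYPLA1 or LYPLA2; inactive means under 50% in both panels, or reaching 50% in both.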

Tests used:
[1] = target: Acyl-protein thioesterase 1 (Homo sapiens) (UniProt O75608); assay: selectivity of LYPLA1/LYPLA2 inhibition – cell lysate, gel-based ABPP, fluorescence, HEK293T proteome, powder samples, selectivity assay for LYPLA1/LYPLA2 inhibitor project, late-stage follow-up (AID 651988); details: HEK293T soluble proteome, FP-PEG-Rh fluorescence, LYPLA1, at 10 µM, hits give high values
Sequence of Acyl-protein thioesterase 1 (Homo sapiens) (O75608 whole entry, looked up): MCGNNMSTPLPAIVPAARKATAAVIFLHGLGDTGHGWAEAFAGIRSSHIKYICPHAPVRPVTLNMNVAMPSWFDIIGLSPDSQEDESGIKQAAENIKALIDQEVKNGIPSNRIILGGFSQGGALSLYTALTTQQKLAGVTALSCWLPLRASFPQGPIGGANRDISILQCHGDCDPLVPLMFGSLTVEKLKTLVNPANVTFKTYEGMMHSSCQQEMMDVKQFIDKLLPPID

[2] = target: Acyl-protein thioesterase 2 (Homo sapiens) (UniProt O95372); assay: as above; details: HEK293T soluble proteome, FP-PEG-Rh fluorescence, LYPLA2, at 10 µM, hits give high values
Sequence of Acyl-protein thioesterase 2 (Homo sapiens) (O95372 whole entry, looked up): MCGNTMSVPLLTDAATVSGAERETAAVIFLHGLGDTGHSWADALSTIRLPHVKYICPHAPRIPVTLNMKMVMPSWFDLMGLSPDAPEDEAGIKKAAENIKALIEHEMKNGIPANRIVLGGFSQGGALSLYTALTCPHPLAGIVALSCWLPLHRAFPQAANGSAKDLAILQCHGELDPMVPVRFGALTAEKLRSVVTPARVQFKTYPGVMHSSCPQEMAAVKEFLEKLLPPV

SMILES	inhibition [1]	inhibition [2]
O=C(CN1CCN(C(=O)c2ccco2)CC1)Nc1cc(Cl)ccc1Cl	100%	25% (inactive)
O=C(CN1CCN(C(=O)c2ccccc2)CC1)Nc1cc(S(=O)(=O)N2CCCC2)ccc1Cl	75% (inactive)	0% (inactive)
O=C(c1cc2c(s1)-c1ccc(Cl)cc1S(=O)(=O)C2)N1CCN(C2CCCCC2)CC1	0% (inactive)	75% (inactive)
COc1ccc(N2CCN(C(=O)c3cc4c(s3)-c3ccccc3S(=O)(=O)C4)CC2)cc1	0% (inactive)	100%
O=C(CN1CCN(C(=O)c2ccco2)CC1)Nc1cc(C(F)(F)F)ccc1Cl	100%	25% (inactive)
O=C(CN1CCN(C(=O)c2ccco2)CC1)Nc1ccc(Cl)cc1Cl	50% (inactive)	50% (inactive)
O=C(c1cc2c(s1)-c1ccccc1S(=O)(=O)C2)N1CCN(Cc2ccccc2)CC1	0% (inactive)	50% (inactive)
O=C(c1cc2c(s1)-c1ccccc1S(=O)(=O)C2)N1CCN(c2cccc(Cl)c2)CC1	0% (inactive)	0% (inactive)
O=C(c1cc2c(s1)-c1ccccc1S(=O)(=O)C2)N1CCN(C2CCCCC2)CC1	0% (inactive)	25% (inactive)
O=C(CN1CCN(C(=O)c2ccco2)CC1)Nc1ccc(Br)cc1Cl	50% (inactive)	50% (inactive)
O=C(c1ccco1)N1CCN(C(=S)Nc2cccc([N+](=O)[O-])c2)CC1	0% (inactive)	0% (inactive)
O=C(c1cc2c(s1)-c1ccccc1S(=O)(=O)C2)N1CCN(c2ccccc2)CC1	0% (inactive)	75% (inactive)
CC(C(=O)Nc1cccc(C(F)(F)F)c1)N1CCN(C(=O)c2ccco2)CC1 (configuration not stated)	0% (inactive)	0% (inactive)
O=C(c1cc2c(s1)-c1ccc(Cl)cc1S(=O)(=O)C2)N1CCN(c2ncccn2)CC1	0% (inactive)	75% (inactive)
COc1ccc(N2CCN(C(=O)c3cc4c(s3)CCCCC4)CC2)cc1	0% (inactive)	100% (inactive)
O=C(Nc1ccc(N2CCN(C(=O)c3ccco3)CC2)c(Cl)c1)c1c(F)c(F)c(F)c(F)c1F	75% (inactive)	50% (inactive)
O=C(COc1ccc(Cl)cc1)N1CCN(c2cccc(C(F)(F)F)c2)CC1	25% (inactive)	0% (inactive)
O=C(c1ccco1)N1CCN(C(=S)Nc2ccc(F)c(Cl)c2)CC1	100% (inactive)	50% (inactive)
COc1ccccc1N1CCN(C(=O)c2cc3c(s2)-c2ccccc2S(=O)(=O)C3)CC1	0% (inactive)	0% (inactive)
O=C(c1cc2c(s1)-c1ccc(Cl)cc1S(=O)(=O)C2)N1CCN(c2ccccn2)CC1	0% (inactive)	0% (inactive)
COc1ccc(N2CCN(C(=O)c3ccc(C(C)(C)C)cc3)CC2)cc1	0% (inactive)	75% (inactive)
CCOC(=O)N1CCN(C(=O)c2cc3c(s2)-c2ccc(Cl)cc2S(=O)(=O)C3)CC1	0% (inactive)	0% (inactive)
CC1CCc2c(sc(NC(=O)CN3CCN(C(=O)c4ccco4)CC3)c2C#N)C1 (configuration not stated)	0% (inactive)	0% (inactive)
O=C(c1cc2c(s1)-c1ccccc1S(=O)(=O)C2)N1CCN(c2ccc(Cl)cc2)CC1	0% (inactive)	100% (inactive)
Cc1nnsc1C(=O)N1CCCC(N2CCN(c3cccc(C(F)(F)F)c3)CC2)C1 (configuration not stated)	0% (inactive)	0% (inactive)
O=C(CN1CCN(C(=O)c2ccco2)CC1)Nc1cccc(Cl)c1Cl	0% (inactive)	0% (inactive)
